Assays:
Type in all cases: functional
Rattus norvegicus [1] = assay: Cartilage space narrowing was measured radiographically after 42 days initial immunization with type II collagen in rats at a dose of 200 mg/kg
Rattus norvegicus [2] = assay: Paw diameter measured with a micrometer caliper after 42 days initial immunization with type II collagen in rats at a dose of 200 mg/kg
Rattus norvegicus [3] = assay: Erosions of tarsal bones measured radiographically after 42 days initial immunization with type II collagen in rats at a dose of 200 mg/kg

Row | SMILES | Cartilage space (Rattus norvegicus [1]) | Mean paw diameter (Rattus norvegicus [2]) [mm] | Erosions (Rattus norvegicus [3])
1 | C[C@]12C=CC(=O)C=C1CCC1[C@@H]2[C@@H](O)C[C@@]2(C)[C@H]1CC[C@]2(O)C(=O)CO (single isomer, unassigned) [PREDNISOLONE] | 3.27 | 7.92 | 3.5
2 | COc1ccc2c(c1)c(CC(=O)O)c(C)n2C(=O)c1ccc(Cl)cc1 [INDOMETHACIN] | 2.94 | 8 | 2.94
3 | CC(C)(S)[C@@H](N)C(=O)O [PENICILLAMINE] | 2.72 | 8.89 | 2.83
4 | CCCCC1C(=O)N(c2ccccc2)N(c2ccccc2)C1=O [PHENYLBUTAZONE] | 2.86 | 8.42 | 3.33
